Test results: ChEMBL document CHEMBL3877282, “Synthesis and structure-activity studies of side chain analogues of the anti-tubercular agent, Q203” (Eur J Med Chem, 2017)
≈ marks a conversion by molar mass, not a printed value.

Legend:
[1] = test system: Mycobacterium tuberculosis; test: Antimycobacterial activity against GFP-fused Mycobacterium tuberculosis H37Rv in liquid broth culture medium; assay type: functional
[2] = test system: Mycobacterium tuberculosis; test: Antimycobacterial activity against GFP-fused Mycobacterium tuberculosis H37Rv infected in macrophages; assay type: functional
[3] = Half life in mouse at 2 mg/kg, iv; assay type: ADME, organism-based; conditions: in vivo
[4] = Clearance in mouse at 2 mg/kg, iv; assay type: ADME, organism-based; conditions: in vivo
[5] = Volume of distribution at steady state in mouse at 2 mg/kg, iv; assay type: ADME, organism-based; conditions: in vivo, read-out: Vdss
[6] = Cmax in mouse at 10 mg/kg, po; assay type: ADME, organism-based; design: dose 10 mg/kg, route oral; conditions: in vivo
[7] = Half life in mouse at 10 mg/kg, po; assay type: ADME, organism-based; conditions: in vivo
[8] = Tmax in mouse at 10 mg/kg, po; assay type: ADME, organism-based; conditions: in vivo
[9] = AUC (0 to infinity) in mouse at 10 mg/kg, po; assay type: ADME, organism-based; design: dose 10 mg/kg, route oral, time infinity; conditions: in vivo
[10] = Oral bioavailability in mouse at 10 mg/kg; assay type: ADME, organism-based; conditions: in vivo

CCc1nc2ccc(Cl)cn2c1C(=O)NCc1ccc(OCc2ccc(OC(F)(F)F)cc2)cc1
MIC80 [1]: 0.015 µM (≈ 0.00756 µg/mL)

CCc1nc2cc(Cl)ccn2c1C(=O)NCc1ccc(N2CCC(Oc3ccc(OC(F)(F)F)cc3)CC2)cc1
MIC80 [1]: 0.021 µM (≈ 0.012 µg/mL)

CCc1nc2ccc(Cl)cn2c1C(=O)NCc1ccc(N2CCN(C(=O)c3ccc(F)cc3)CC2)cc1
MIC80 [1]: 0.534 µM (≈ 0.278 µg/mL)

CCc1nc2ccc(Cl)cn2c1C(=O)NCc1ccc(N2CCN(Cc3ccc(OC(F)(F)F)cc3)CC2)cc1
MIC80 [1]: 0.015 µM (≈ 0.00858 µg/mL)
MIC80 [2]: 0.082 µM (≈ 0.0469 µg/mL)

CCc1nc2cc(Cl)ccn2c1C(=O)NCc1ccc(N(C)c2ccc(OC(F)(F)F)cc2)cc1
MIC80 [1]: 0.04 µM (≈ 0.0201 µg/mL)
MIC80 [2]: 0.023 µM (≈ 0.0116 µg/mL)

CCc1nc2ccc(F)cn2c1C(=O)NCc1ccc(OCc2ccc(OC(F)(F)F)cc2)cc1
MIC80 [1]: 0.084 µM (≈ 0.0409 µg/mL)
MIC80 [2]: 0.028 µM (≈ 0.0136 µg/mL)
half-life [3]: 11 h
clearance [4]: 4.76 mL/min/kg
Vd [5]: 3.85 L/kg
Cmax [6]: 2620 ng/mL
half-life [7]: 11.4 h
Tmax [8]: 1 h
AUC(0-inf) [9]: 28200 ng·h/mL
bioavailability [10]: 80.5%

CCc1nc2ccc(Cl)cn2c1C(=O)NCc1ccc(N2CCC(Oc3ccc(C(F)(F)F)cc3)CC2)cc1
MIC80 [1]: 0.026 µM (≈ 0.0145 µg/mL)
MIC80 [2]: 0.009 µM (≈ 0.00501 µg/mL)
half-life [3]: 19.6 h
clearance [4]: 2.23 mL/min/kg
Vd [5]: 2.39 L/kg
Cmax [6]: 4100 ng/mL
half-life [7]: 20 h
Tmax [8]: 2 h
AUC(0-inf) [9]: 48900 ng·h/mL
bioavailability [10]: 65.6%

CCc1nc2cc(Cl)ccn2c1C(=O)NCc1ccc(Nc2ccc(OC(F)(F)F)cc2)cc1
MIC80 [1]: 0.839 µM (≈ 0.41 µg/mL)

CCc1nc2ccc(Cl)cn2c1C(=O)NCc1ccc(N2CCC(Oc3ccc(F)cc3)CC2)cc1
MIC80 [1]: 0.01 µM (≈ 0.00507 µg/mL)

CCc1nc2cc(Cl)ccn2c1C(=O)NCc1ccc(NCc2ccc(OC(F)(F)F)cc2)cc1
MIC80 [1]: 0.25 µM (≈ 0.126 µg/mL)

CCc1nc2cc(Cl)ccn2c1C(=O)NCc1ccc(N2CCC(Cc3ccccc3)CC2)cc1
MIC80 [1]: 0.022 µM (≈ 0.0107 µg/mL)

CCc1nc2cc(Cl)ccn2c1C(=O)NCc1ccc(OCc2ccc(OC(F)(F)F)cc2)cc1
MIC80 [1]: 0.015 µM (≈ 0.00756 µg/mL)
MIC80 [2]: < 0.001 µM
half-life [3]: 13.9 h
clearance [4]: 5.77 mL/min/kg
Vd [5]: 4.68 L/kg
Cmax [6]: 1640 ng/mL
half-life [7]: 11.9 h
Tmax [8]: 0.5 h
AUC(0-inf) [9]: 11500 ng·h/mL
bioavailability [10]: 53.4%

CCc1nc2ccc(Cl)cn2c1C(=O)NCc1ccc(N2CCC(Oc3ccc(OC(F)(F)F)cc3)CC2)cc1
MIC80 [1]: 0.007 µM (≈ 0.00401 µg/mL)

CCc1nc2ccc(Cl)cn2c1C(=O)NCc1ccc(N2CCN(C(=O)Cc3ccc(F)cc3)CC2)cc1
MIC80 [1]: 0.373 µM (≈ 0.199 µg/mL)

CCc1nc2ccc(Br)cn2c1C(=O)NCc1ccc(OCc2ccc(OC(F)(F)F)cc2)cc1
MIC80 [1]: 0.432 µM (≈ 0.237 µg/mL)

CCc1nc2ccc(Cl)cn2c1C(=O)NCc1ccc(N2CCC(Oc3ccc(Cl)cc3)CC2)cc1
MIC80 [1]: 0.003 µM (≈ 0.00157 µg/mL)
MIC80 [2]: < 0.001 µM
half-life [3]: 14.1 h
clearance [4]: 2.83 mL/min/kg
Vd [5]: 1.34 L/kg
Cmax [6]: 3540 ng/mL
half-life [7]: 18.9 h
Tmax [8]: 2 h
AUC(0-inf) [9]: 30300 ng·h/mL
bioavailability [10]: 51.4%

CCc1nc2ccccn2c1C(=O)NCc1ccc(OCc2ccc(OC(F)(F)F)cc2)cc1
MIC80 [1]: 0.027 µM (≈ 0.0127 µg/mL)

CCc1nc2ccc(Cl)cn2c1C(=O)NCc1ccc(N2CCC(COc3ccc(OC(F)(F)F)cc3)CC2)cc1
MIC80 [1]: 0.037 µM (≈ 0.0217 µg/mL)

CCc1nc2cc(Cl)ccn2c1C(=O)NCc1ccc(Oc2ccc(OC(F)(F)F)cc2)cc1
MIC80 [1]: 0.064 µM (≈ 0.0314 µg/mL)
MIC80 [2]: 0.027 µM (≈ 0.0132 µg/mL)

CCc1nc2cc(Cl)ccn2c1C(=O)NCc1ccc(OCc2ccc(F)cc2)cc1
MIC80 [1]: 0.02 µM (≈ 0.00876 µg/mL)

CCc1nc2ccc(Cl)cn2c1C(=O)NCc1ccc(N2CCC(Oc3ccc(Cl)cc3)C2)cc1 (single isomer, unassigned; 40)
MIC80 [1]: 0.006 µM (≈ 0.00306 µg/mL)

CCc1nc2ccc(Cl)cn2c1C(=O)NCc1ccc(N2CCC(Oc3ccc(Cl)cc3)C2)cc1 (single isomer, unassigned; 41)
MIC80 [1]: 0.014 µM (≈ 0.00713 µg/mL)

NNC(=O)c1ccncc1 [ISONIAZID]
MIC80 [1]: 0.49 µM (≈ 0.0672 µg/mL)
MIC80 [2]: 0.2 µM (≈ 0.0274 µg/mL)
